Values of other authors in publication PMC11089243, “The first selective VAP-1 inhibitor in China, TT-01025-CL: safety, tolerability, pharmacokinetics, and pharmacodynamics of single- and multiple-ascending doses” (Frontiers in Pharmacology, 2024).

What was measured:
[1] = system: monoamine oxidase-B in the brain; design: method as in NASH, 2022; conditions: NASH patients; inhibition of monoamine oxidase-B in the brain; ref NASH, 2022
[2] = design: method as in NASH, 2022; conditions: ref NASH, 2022

CC(C)(C)NC(=O)c1ccc(OC/C(=C/F)CN)cc1.Cl [BI 1467335]
finding of phase I study leading to suspension of development [1]: risk of drug interactions | brain penetration (in words) [2]: high brain penetration
